Measured values as given in US11413278B2, “Compounds and methods for promoting stress resistance” (priority 2015, dated 2022).
Entries after “also recorded” stand apart in the source; their conditions may differ. Where two headings read alike, the source gives them in different places.

Legend:
FOXO3 = experiment: qPCR analysis of FOXO3-regulated genes; type: cell-based, human; settings: for Induction of at least two of five FOXO3-regulated genes (SOD2, GADD45A, CAT, DDB1, TXNIP): WI-38; for fold induction at 10 µM: Homo sapiens; for K = Sestrin induction: score
How it was run: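 WI-38 cells treated with compound at 10 μM for 24 h, followed by Cells-to-Ct RT-qPCR of FOXO3 target genes normalised to B2M, PPIA and GAPDH. FOXO3 or NRF2 dependence tested by prior 10 nM siRNA knockdown (36 h transfection, compound added ~24 h after replating).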

WI-38 cells = experiment: CdCl2 (cadmium) resistance assay; type: cell-based, human; settings: for fold induction at 10 µM: Homo sapiens, 12 h, normalized ATP measurement; for Assay 4: H2O2- & Cd-resistant / Assay 2: Cadmium-resistant: YES/NO; for Assay 2: Cadmium-resistant: * indicates partial
How it was run: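 WI-38 cells were given compounds at five final concentrations (0.25–20 μM) in triplicate, followed by cadmium or MMS for 12 h. For MMS, medium was switched from OptiMEM+10% FBS to serum-free DMEM+2% BSA when compounds were added, 24 h before stressor. Two independent assays were run, analysed by global variance t-test.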

[1] = Summary score for characterization of 38 core set hits; settings: for D = Triple resistant: 2-point score, multiplex resistance (cadmium, MMS, H2O2); for S = Sum of Negative scores: human; for C = H2O2- & Cd-resistant: score, resistance to both H2O2 and cadmium
Experimental: 38 “core set” small molecules are listed and are assigned a score, based on the result for each individual characterization. From our small molecule screen for H2O2-resistance, we isolated 61 top hits. […] Specifically, a 2-point score was assigned to the most well-known and prominent longevity-related phenotypes, such as multiplex resistance, activation of FOXO3 and/or NRF2, and down-regulation of mTOR. Small molecules were also analyzed for their ability to extend C. elegans' lifespan in 4 to 6 independent trials, and the lifespan score scale is from 0 to 2: 0 for no obvious effects, 1 for lifespan extension observed in 2 trials, 2 for observed in more than 2 trials. Certain molecules appeared to have DNA-damaging effects and/or potential cell-toxicity in cultured human cells, and they receive a negative point.

[2] = 24 h, Assay 10(m), at 10 uM, qPCR, read-out: Induction of FOXO3-regulated genes: CAT normalized fold-change
[3] = 24 h, Assay 10(m), at 10 uM, qPCR, read-out: Induction of FOXO3-regulated genes: DDB1 normalized fold-change
[4] = 24 h, Assay 10(m), at 10 uM, qPCR, read-out: Induction of FOXO3-regulated genes: SESN1 normalized fold-change
[5] = WI-38, 24 h, read-out: SESN1 expression
[6] = 10 μM, 24 hrs, WI-38 cells, qPCR, normalized to B2M, n = 4, read-out: CAT expression, normalized fold change (FOXO3-regulated gene)
[7] = 10 μM, 24 hrs, WI-38 cells, qPCR, normalized to B2M, n = 4, read-out: DDB1 expression, normalized fold change (FOXO3-regulated gene)
[8] = 10 μM, 24 hrs, WI-38 cells, qPCR, normalized to B2M, n = 4, read-out: SESN1 expression, normalized fold change (FOXO3-regulated gene)
[9] = WI-38 cells, 10 μM, 24 hrs, n=4, qPCR normalized by B2M, read-out: DDB1 Normalized fold change
[10] = WI-38 cells, 10 μM, 24 hrs, n=4, qPCR normalized by B2M, read-out: GADD45A Normalized fold change
[11] = WI-38 cells, 10 μM, 24 hrs, n=4, qPCR normalized by B2M, read-out: SESN1 Normalized fold change
[12] = fold change, qPCR, WI-38 cells, 10 μM, 24 hrs, read-out: Summary of effects on FOXO3-regulated genes: CAT
[13] = fold change, qPCR, WI-38 cells, 10 μM, 24 hrs, read-out: Summary of effects on FOXO3-regulated genes: DDB1
[14] = fold change, qPCR, WI-38 cells, 10 μM, 24 hrs, read-out: Summary of effects on FOXO3-regulated genes: SESN1
[15] = qPCR, WI-38 cells, 10 μM, n=4, 24 hrs, normalized by B2M, read-out: CAT Normalized fold change
[16] = qPCR, WI-38 cells, 10 μM, n=4, 24 hrs, normalized by B2M, read-out: SOD2 Normalized fold change
[17] = qPCR, WI-38 cells, 10 μM, n=4, 24 hrs, normalized by B2M, read-out: TXNIP Normalized fold change
[18] = Exp. 1, WI-38 cells, read-out: Exp. 1, under Cd2Cl2 stress treatment, at 10 uM (fold change)
[19] = Exp. 2, WI-38 cells, read-out: Exp. 2, under Cd2Cl2 stress treatment, at 10 uM (fold change)
[20] = WI-38 cells, 10 μM, both stressors
[21] = score in summary of 38 core set hits
[22] = 24 h, Assay 10(m), at 10 uM, qPCR, read-out: Induction of FOXO3-regulated genes: TXNIP normalized fold-change
[23] = 10 μM, 24 hrs, WI-38 cells, qPCR, normalized to B2M, n = 4, read-out: TXNIP expression, normalized fold change (FOXO3-regulated gene)
[24] = fold change, qPCR, WI-38 cells, 10 μM, 24 hrs, read-out: Summary of effects on FOXO3-regulated genes: TXNIP
[25] = 24 h, Assay 10(m), at 10 uM, qPCR, read-out: Induction of FOXO3-regulated genes: GADD45A normalized fold-change

Row | Compound | E = Potential FOXO3 Activation (FOXO3; 2-point score) | fold induction at 10 µM (FOXO3; [9]) | fold induction at 10 µM (FOXO3; [10]) | fold induction at 10 µM (FOXO3; [11]) | fold induction at 10 µM (FOXO3; [15]) | fold induction at 10 µM (FOXO3; [16]) | fold induction at 10 µM (FOXO3; [17]) | K = Sestrin induction (FOXO3) | E = Potential FOXO3 Activation (FOXO3; summary score) | CdCl2-resistant (WI-38 cells) | H2O2- & CdCl2-resistant (WI-38 cells) | fold induction at 10 µM (WI-38 cells; [18]) | fold induction at 10 µM (WI-38 cells; [19]) | CdCl2-resistant (WI-38 cells; WI-38 cells, 10 μM) | H2O2- & CdCl2-resistant (WI-38 cells; [20]) | Assay 4: H2O2- & Cd-resistant (WI-38 cells) | Assay 2: Cadmium-resistant (WI-38 cells) | A = Cadmium resistant (WI-38 cells; [21]) | A = Cadmium resistant (WI-38 cells; summary score) | C = H2O2- & Cd-resistant (WI-38 cells; summary score) | further results
1 | NS(=O)(=O)c1ccc(NC(=O)c2ccc([N+](=O)[O-])o2)cc1 [Gr-1A] | 0 | 1.35 | 1.27 | 2.12 | 1.31 | 1.5 | 1.23 | 1 | 0 | YES | YES | 1.46 | 1.45 | YES | YES | YES | YES | 1 | 1 | 1 | Induction of at least two of five FOXO3-regulated genes (SOD2, GADD45A, CAT, DDB1, TXNIP) (FOXO3; 10 μM, 24 hrs): significant induction; also recorded: significant, induction; also recorded: induce FOXO3-regulated genes; fold induction at 10 µM (FOXO3; [2]): 1.36; fold induction at 10 µM (FOXO3; [3]): 1.16; fold induction at 10 µM (FOXO3; [4]): 1.93; fold induction at 10 µM (FOXO3; [5]): > 1.5; fold induction at 10 µM (FOXO3; [6]): 1.31; fold induction at 10 µM (FOXO3; [7]): 1.36; fold induction at 10 µM (FOXO3; [8]): 2.12; fold induction at 10 µM (FOXO3; [12]): 1.31; fold induction at 10 µM (FOXO3; [13]): 1.36; fold induction at 10 µM (FOXO3; [14]): 2.12; D = Triple resistant [1]: 0; S = Sum of Negative scores [1]: 1; C = H2O2- & Cd-resistant [1]: 1
2 | O=C(Nc1cc(C(F)(F)F)ccc1Cl)c1ccc([N+](=O)[O-])o1 [Gr-1B] | 0 | 1.18 | 0.947 | 1.3 | 1.4 | 1.21 | 1.94 | 0 | 0 | YES | YES | 2.01 | 1.72 | YES | YES | YES | YES | 1 | 1 | 1 | Induction of at least two of five FOXO3-regulated genes (SOD2, GADD45A, CAT, DDB1, TXNIP) (FOXO3; 10 μM, 24 hrs): significant induction; also recorded: significant, induction; fold induction at 10 µM (FOXO3; [2]): 1.4; fold induction at 10 µM (FOXO3; [22]): 1.52; fold induction at 10 µM (FOXO3; [6]): 1.4; fold induction at 10 µM (FOXO3; [8]): 1.3; fold induction at 10 µM (FOXO3; [23]): 1.94; fold induction at 10 µM (FOXO3; [12]): 1.4; fold induction at 10 µM (FOXO3; [14]): 1.3; fold induction at 10 µM (FOXO3; [24]): 1.94; D = Triple resistant [1]: 0; S = Sum of Negative scores [1]: 0; C = H2O2- & Cd-resistant [1]: 1
3 | CCc1ccccc1NC(=O)c1ccc([N+](=O)[O-])o1 [Gr-1C] | 0 | 1.4 | 0.727 | 1.9 | 1.44 | 1.33 | 1.23 | 0 | 0 | YES | YES | 7.9 | 9.86 | YES | YES | YES | YES | 1 | 1 | 1 | Induction of at least two of five FOXO3-regulated genes (SOD2, GADD45A, CAT, DDB1, TXNIP) (FOXO3; 10 μM, 24 hrs): significant induction; also recorded: induce FOXO3-regulated genes; fold induction at 10 µM (FOXO3; [2]): 1.41; fold induction at 10 µM (FOXO3; [3]): 1.14; fold induction at 10 µM (FOXO3; [25]): 0.6; fold induction at 10 µM (FOXO3; [4]): 1.59; fold induction at 10 µM (FOXO3; [5]): > 1.5; fold induction at 10 µM (FOXO3; [6]): 1.44; fold induction at 10 µM (FOXO3; [12]): 1.44; D = Triple resistant [1]: 0; S = Sum of Negative scores [1]: 1; C = H2O2- & Cd-resistant [1]: 1
4 | O=C(Nc1cccc(Cl)c1)c1ccc([N+](=O)[O-])o1 [Gr-1D] | 0 | 1.18 | 1.92 | 1.73 | 0.953 | 1.42 | 0.621 | 1 | 0 | YES | YES | 3.14 | 3.84 | YES | YES | YES | YES | 1 | 1 | 1 | fold induction at 10 µM (FOXO3; [3]): 1.13; fold induction at 10 µM (FOXO3; [4]): 1.91; fold induction at 10 µM (FOXO3; [5]): > 1.5; fold induction at 10 µM (FOXO3; [7]): 1.18; fold induction at 10 µM (FOXO3; [8]): 1.73; fold induction at 10 µM (FOXO3; [23]): 0.62; fold induction at 10 µM (FOXO3; [13]): 1.18; fold induction at 10 µM (FOXO3; [14]): 1.73; fold induction at 10 µM (FOXO3; [24]): 0.62; D = Triple resistant [1]: 0; S = Sum of Negative scores [1]: 1; C = H2O2- & Cd-resistant [1]: 1
5 | O=C(Nc1cccc(C(F)(F)F)c1)c1ccc([N+](=O)[O-])o1 [Gr-1E] | 0 | 1.39 | 0.752 | 1.4 | 1.45 | 1.46 | 2.02 | 0 | 0 | YES | YES | 6.69 | 8.82 | YES | YES | YES | YES | 1 | 1 | 1 | Induction of at least two of five FOXO3-regulated genes (SOD2, GADD45A, CAT, DDB1, TXNIP) (FOXO3; 10 μM, 24 hrs): significant induction; also recorded: significant, induction; fold induction at 10 µM (FOXO3; [2]): 1.38; fold induction at 10 µM (FOXO3; [25]): 0.62; fold induction at 10 µM (FOXO3; [4]): 1.34; fold induction at 10 µM (FOXO3; [22]): 1.33; fold induction at 10 µM (FOXO3; [6]): 1.45; fold induction at 10 µM (FOXO3; [8]): 1.4; fold induction at 10 µM (FOXO3; [23]): 2.02; fold induction at 10 µM (FOXO3; [12]): 1.45; fold induction at 10 µM (FOXO3; [14]): 1.4; fold induction at 10 µM (FOXO3; [24]): 2.02; D = Triple resistant [1]: 0; S = Sum of Negative scores [1]: 0; C = H2O2- & Cd-resistant [1]: 1
